Read-outs that look alike come from different tables or passages of the source.
Tests used:
human primary monocytes = assay: Human monocyte viability (CellTiter-Glo ATP); type: cell-based; conditions: four days incubation; ATP levels; protein from 293-6E cells; read-out: IC50, inhibition of human monocyte viability
Method: Primary monocytes were isolated from human peripheral blood mononuclear cells (PBMC) through size sedimentation over Percoll columns as described (de Almeida et al., Mem Inst Oswaldo Cruz 95(2):221-223, (2000)). In this experiment, 1×10^4 freshly isolated human primary monocytes per well of a 96-well plate were incubated with the hCSF1R.506-GS-Fc or hCSF1R.512-GS-Fc fusion protein (0.01-120 nM) and the cells were incubated at 37° C. with 5% CO2. After four days, ATP levels in the cells were determined using the CellTiter-Glo Luminescent Cell Viability Assay Kit (Promega, Cat. No. G7571), according to the manufacturer's instructions, as a measurement of cell viability.

CSF1 = target: T1, CSF1 (Homo sapiens, UniProt P09603); assay: Biacore SPR CSF1 ligand binding affinity and kinetics; conditions: proteins expressed in CHO cells; Biacore (Table 4)
T1 sequence (P09603 33-554): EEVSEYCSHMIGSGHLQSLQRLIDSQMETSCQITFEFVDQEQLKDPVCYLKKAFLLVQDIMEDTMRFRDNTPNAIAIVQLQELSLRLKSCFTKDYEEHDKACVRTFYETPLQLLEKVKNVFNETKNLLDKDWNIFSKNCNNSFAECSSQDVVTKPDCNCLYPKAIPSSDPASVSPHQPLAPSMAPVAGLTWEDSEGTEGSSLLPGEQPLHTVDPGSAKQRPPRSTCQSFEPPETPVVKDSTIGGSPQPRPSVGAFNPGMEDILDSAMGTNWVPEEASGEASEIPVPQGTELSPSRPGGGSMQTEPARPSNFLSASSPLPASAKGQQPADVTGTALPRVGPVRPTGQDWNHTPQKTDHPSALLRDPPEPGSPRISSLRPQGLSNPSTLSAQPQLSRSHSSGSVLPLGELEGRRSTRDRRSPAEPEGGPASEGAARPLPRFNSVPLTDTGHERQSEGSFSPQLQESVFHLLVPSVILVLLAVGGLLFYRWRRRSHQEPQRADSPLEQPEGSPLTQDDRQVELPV
Method: The CSF1 and IL34 ligand binding affinity and kinetics of the hCSF1R.506-GS-Fc and hCSF1R.512-GS-Fc fusion proteins were determined using Biacore® X surface plasmon resonance (SPR) technology (Uppsala, Sweden). CSF1 and IL34 are the only two ligands known to interact with the CSF1R ECD. The CSF1 and IL34 binding experiments were carried out using methodology similar to that described in Lin et al., Science 320:807-811, (2008).
In order to compare the relative ligand binding affinity of hCSF1R.506 (SEQ ID NO:2) and hCSF1R.506-Fc (SEQ ID NO:6) proteins expressed in CHO cells to CSF1, a Biacore® assay was used.

CIA mouse model [1] = assay: Mouse collagen-induced arthritis (CIA) model, Example 9; type: in vivo; conditions: relative to vehicle, p<0.01
CIA mouse model [2] = assay: Mouse collagen-induced arthritis (CIA) model, Example 13 (clinical score, histology, serum PYD); type: in vivo; conditions: for clinical arthritis scores: FIG. 9; for serum pyridinoline (PYD) levels: vs vehicle control, ELISA, FIG. 12
EAE mouse model = conditions: for reduction in the EAE clinical score: relative to vehicle
Method: The CSF1R ECD fusion molecules were also tested for their ability to inhibit MS disease pathology in a mouse model of MS. These experiments used the mouse experimental autoimmune encephalomyelitis (EAE) model, which is widely used as a model of MS in humans. See, for example, Steinman and Zamvil, TRENDS in Immunology, 26(11):565-571 (2005). In the EAE model, disease progression and associated pathology may be measured according to the following EAE clinical score: no clinical disease (Score: 0); tail flaccidity (Score: 1); hind limb weakness (Score: 2); hind limb paralysis (Score: 3); forelimb paralysis or loss of ability to right from supine (stand up from a supine position) (Score: 4); and moribund (near death) or dead (Score: 5). […] The mCSF1R.506-Fc fusion protein (m506) was tested to determine whether it could decrease the EAE clinical scores or body weight loss. The mCSF1R.506-Fc fusion protein (SEQ ID NO.:8) was expressed and purified from the culture media of CHO cells stably transfected with the mCSF1R.506-Fc/pDEF38 plasmid vector as described in Example 2.
For the EAE mouse model experiments, 60 female C57BL/6 mice, age […], were divided into five groups: • Group 1: Vehicle control (Vehicle) (phosphate buffered saline, PBS), 100 μl, i.p., 3 times a week for up to 7 weeks; • Group 2: Methotrexate positive control (MTX), 10 mg/kg, i.v., q3d for up to 7 weeks; • Group 3: mCSF1R.506-Fc, 1 mg/kg, i.p., 3 times a week for up to 7 weeks; • Group 4: mCSF1R.506-Fc, 10 mg/kg, i.p., 3 times a week for up to 7 weeks; • Group 5: mCSF1R.506-Fc, 20 mg/kg, i.p., 3 times a week for up to 7 weeks.
Each group consisted of 12 mice. EAE induction was performed according to the following protocol: 300 ug of myelin oligodendrocyte glycoprotein (MOG)35-55 peptide was dissolved in 100 ul PBS and emulsified in an equal volume of complete Freund's adjuvant (CFA) containing 5 mg/ml Mycobacterium tuberculosis H37 RA. The emulsion (200 ul) was injected subcutaneously into the flank of the mice on days 0 and 7. Pertussis toxin (500 ng in 500 ul of PBS; List Biological Labs) was administered intravenously into each tail vein on days 0 and 2.
The MTX (10 mg/kg) was administered intravenously once every 3 days (q3d) for up to seven weeks starting on day 0; mCSF1R.506-Fc (1 mg/kg, 10 mg/kg, or 20 mg/kg), or vehicle (PBS) was administered intraperitoneally to the EAE mice in a 0.2 ml volume three times per week for 45 days, starting on day 0. The EAE clinical scores were measured prior to each dosing of PBS, MTX, or mCSF1R.506-Fc, using the above-mentioned scoring system. Body weights were recorded on day 0 before treatment was initiated, and were then measured at least twice per week including the day the study was terminated for seven weeks (on days 0, 2, 6, 8, 10, 13, 16, 17, 20, 22, 24, 27, 29, 31, 34, 36, 38, 41, 43, and 45).

[3] = system: CD115+ GR1- monocytes in the spleen; assay: Depletion of CD115+ GR1- monocytes from spleen (flow cytometry); type: in vivo, mouse; conditions: DBA1 mice, 20 mg/kg i.p. 3 times per week, two weeks
Method: Male DBA1 mice were administered i.p. 3 times per week with saline or mCSF1R.506-Fc protein (SEQ ID NO:34) at 20 mg/kg. After two weeks of treatment, spleens were harvested for analysis of monocytes by flow cytometry as described (Liu et al., Science 324: 392 (2009)). Cells were stained at 4° C. in PBS with 5% (vol/vol) FBS. An LSR II (Becton Dickinson) was used for multiparameter flow cytometry of stained cell suspensions, followed by analysis with FlowJo software (TreeStar).

[4] = system: peripheral blood monocytes (F4/80+, CD11b+); assay: Depletion of mouse monocytes from peripheral blood after minicircle DNA tail vein transfection; type: in vivo; conditions: C57BL/6 mouse; 30 ug minicircle DNA by hydrodynamic tail vein transfection; about three weeks; vs saline
Method: The mCSF1R.506-GS-Fc fusion protein (SEQ ID NO.:34) was expressed in vivo to determine whether it could deplete mouse monocytes from peripheral blood as a measure of in vivo biological activity. For these experiments, the minicircle DNA vector (mCSF1R.506-GS-Fc/p2xC31MasterSfi) containing the polynucleotides encoding mCSF1R.506-GS-Fc described in Example 1 was employed. For these experiments, 30 ug of CSF1R.506-GS-Fc-encoding minicircle DNA was injected into a C57BL/6 mouse tail vein by hydrodynamic tail vein transfection (TVT) as described (Ozaki et al., J Immunol, 173(9):5361-5371 (2004)). Saline was injected as a negative control. Approximately three weeks after the tail vein injection, peripheral blood cells were isolated and monocyte levels were determined using FACS analysis with anti-CD11b and anti-F4/80 antibodies according to the manufacturer's instruction (BD Biosciences) to detect monocyte marker-positive cells (F4/80^+, CD11b^+).

hCSF1R.512-GS-Fc: Full-length human CSF1R ECD fused to GS-Fc; SEQ ID NO. 31
IC50 (human primary monocytes): 17.5 nM

hCSF1R.506: human CSF1R ECD corresponding to SEQ ID NO.:2 (amino acids 1-506), without fusion partner
Kd (CSF1): 28.9 nM | ka, binding to CSF1 (CSF1): 2.80E+04 l/Ms | kd, binding to CSF1 (CSF1): 0.000809 s⁻¹

hCSF1R.506-GS-Fc: Human CSF1R ECD lacking the six C-terminal residues fused to GS-Fc; SEQ ID NO. 32
IC50 (human primary monocytes): 8.8 nM

ENBREL® [reference compound]
inhibition of CIA arthritis score (CIA mouse model [1]; 10 mg/kg i.p. twice weekly for 34 days): about 40% | clinical arthritis scores (CIA mouse model [2]; 10 mg/kg i.p. daily): inhibited clinical scores | serum pyridinoline (PYD) levels (CIA mouse model [2]; CIA mice): not significant statistically

mCSF1R.506-Fc: Mouse CSF1R ECD lacking the five C-terminal residues fused to an Fc; SEQ ID NO. 8
reduction in the EAE clinical score (EAE mouse model; 1 mg/kg i.p. 3 times a week, p<0.001): 55% | reduction in the EAE clinical score (EAE mouse model; 10 mg/kg i.p. 3 times a week, p<0.01): 40% | reduction in the EAE clinical score (EAE mouse model; 20 mg/kg i.p. 3 times a week, p<0.001): 78% | higher body weight relative to vehicle control (EAE mouse model; EAE mice, average of three doses (1, 10, 20 mg/kg), p<0.01-0.001): 8% | reduction of CIA arthritis score (CIA mouse model [1]; 20 mg/kg i.p. daily for 34 days): about 75% | inflammation, pannus formation, cartilage damage, bone resorption scores (CIA mouse model [2]; 2 mg/kg, 6 mg/kg and 20 mg/kg, compared to vehicle treated mice, FIG. 11): significantly decreased inflammation, pannus formation, cartilage damage, and bone resorption | clinical arthritis scores (CIA mouse model [2]; 2, 6 and 20 mg/kg i.p., dose-dependent): significantly reduced clinical arthritis scores | pannus formation, cartilage damage, bone resorption in histologic joint sections (CIA mouse model [2]; CIA mice, FIG. 10): significantly decreased pannus formation, cartilage damage, and bone resorption | serum pyridinoline (PYD) levels (CIA mouse model [2]; CIA mice): significantly lower | decrease in number of CD115+GR1- cells per spleen ([3]; FIG. 14): more than 50% | CD115+GR1- monocytes in the spleen ([3]; vs saline, FIG. 13): significant reduction

mCSF1R.506-GS-Fc: Mouse CSF1R ECD lacking the five C-terminal residues fused to GS-Fc; SEQ ID NO. 34
monocyte marker-positive cells (F4/80+, CD11b+) in peripheral blood [4]: depletion of mouse monocytes from peripheral blood

CN(Cc1cnc2nc(N)nc(N)c2n1)c1ccc(C(=O)N[C@@H](CCC(=O)O)C(=O)O)cc1 [MTX, Methotrexate, reference compound]
reduction in the EAE clinical score (EAE mouse model; 10 mg/kg i.v. q3d, p<0.001): 95%

From patent US8080246B2, “Colony stimulating factor 1 receptor (CSF1R) extracellular domain fusion molecules” (Five Prime Therapeutics, Inc., priority 2008, dated 2011)
